# Patent publication US9512414B2, “Thermostable beta-glucosidase” (HONDA MOTOR CO., LTD., priority 2014, dated 2016)
# Tested on: thermostable β-glucosidase AR19G-228-1 (GH family 1), SEQ ID NO: 2, from hot spring soil metagenome AR19, expressed in E. coli
# Test: Kinetics of PNPG hydrolysis by AR19G-228-1 β-glucosidase
# Type: biochemical
# Details: 100° C., acetate buffer pH 5.5
# Text: The β-glucosidase activity using PNPG as a substrate of the enzyme protein (AR19G-228-1) encoded by the AR19G-228-1 gene was investigated. A solution prepared by dissolving PNPG (manufactured by Sigma-Aldrich Co. LLC.) in water and adjusting to a predetermined final concentration was used as the substrate solution. It should be noted that the PNPG substrate solutions used in the experiments described below all used the PNPG aqueous solution prepared by the above method. PNPG (manufactured by Sigma-Aldrich Co. LLC.) was used as the substrate for measuring the β-glucosidase activity. In the measurements, the purified enzyme obtained in section <7> above was diluted to a concentration of 0.0075 mg/mL with 0.05 M Tris-HCl buffer (pH 8.0) and used.
# For the reaction at a temperature of 50 to 90° C., a Thermomixer (manufactured by the Eppendorf AG) was used, a sample tube with a volume of 1.5 mL was used as a reaction vessel, and the amount of reaction solution was set to 200 μL. The reaction solution was composed of 5 μL of diluted purified enzyme, 45 μL of purified water, 50 μL of 200 mM acetate buffer (pH 5.5), and 100 μL of 60 mM PNPG aqueous solution. […]
# In all measurements, a mixed solution prepared by replacing the purified enzyme solution with 50 mM Tris-HCl buffer (pH 8.0) and then reacting the solution under the same conditions was used as a control. […] The amount of p-nitrophenol in the supernatant was determined by measuring the absorbance at 420 nm using a spectrophotometer, calculating the amount of p-nitrophenol in the supernatant using a calibration curve prepared with p-nitrophenol, and then determining the amount of p-nitrophenol produced by the enzymatic hydrolysis by the difference from the control. […] In addition, each measurement was performed for three independent experiments, and a mean value and a standard error were determined. […]
smiles,measurement,setting,value
"O=[N+]([O-])c1ccc(O[C@@H]2O[C@H](CO)[C@@H](O)[C@H](O)[C@H]2O)cc1 [PNPG, p-nitrophenyl-β-D-glucopyranoside]",Km,PNPG 0.5-100 mM,4.5 mM
same,Vmax,PNPG 0.5-100 mM,430.3 U/mg
same,Kcat/Km,"PNPG, calculated from Vmax and Km",91500 M⁻¹ s⁻¹
